{"source": "paper PMC7395068", "about": "“The evolution of strategies to minimise the risk of human drug-induced liver injury (DILI) in drug discovery and development” (Archives of Toxicology, 2020)", "key": {"[1]": {"test_system": "HepaRG spheroids", "test": "Combined HCI (HCS) and cellular ATP 3D assay in HepaRG spheroids"}, "[2]": {"test_system": "HepG2 cells", "settings": "cited from earlier work"}, "[3]": {"test_system": "THLE-Null and THLE-3A4 cells", "settings": "In vitro Assay; ref Gustafsson 2014; cited from earlier work"}, "[4]": {"test_system": "hLiMTs", "test": "Combined HCI (HCS) and cellular ATP 3D assay in hLiMTs", "protocol": "3D spheroid models consisting of either primary human hepatocytes with non-parenchymal cells (hLiMT’s) or HepaRG cells (HepaRG spheroids) were assessed for size (MS), oxidative stress (OS), MMP, mitochondrial mass (MM), GSH and cellular ATP content following drug exposure. Fluorescent images are acquired using the confocal mode of an ArrayScan™ XTI HCI reader (ThermoScientific) following which cellular ATP was measured using 3D CellTiter-Glo (Promega)."}, "[5]": {"settings": "plasma free fraction; cited from earlier work"}, "[6]": {"test_system": "rBsep", "settings": "In vitro Assay; ref Dawson 2012; cited from earlier work"}, "[7]": {"settings": "read-out: Human plasma Cmax; total plasma Cmax.tot, median of 9 literature references; cited from earlier work"}, "[8]": {"settings": "cited from earlier work"}, "[9]": {"test_system": "HepG2 cells", "settings": "cited from earlier work", "remark": "listed apart in the source"}, "[10]": {"settings": "cited from earlier work", "remark": "listed apart in the source"}, "[11]": {"test": "Plasma free fraction (fu) and unbound Cmax (Cmax,u)", "assay_type": "in vitro ADME, human", "settings": "unbound plasma Cmax", "protocol": "The prediction of DILI severity was evaluated further using the 3D combined HCI assays using plasma-free fraction. The majority of fu values were obtained from literature, when unavailable in-house prediction was utilised. Unbound plasma Cmax concentrations (Cmax,u) were derived by multiplying total plasma Cmax with the corresponding free fraction (fu) for each compound."}, "[12]": {"test_system": "HepG2 cells, primary human hepatocytes", "settings": "In vitro Assay; ref Garside 2014; cited from earlier work"}, "[13]": {"test_system": "THLE or HepG2 cells, isolated mitochondria, BSEP", "settings": "cited from earlier work"}, "[14]": {"test_system": "Upcyte human hepatocytes", "settings": "In vitro Assay; ref Tolosa 2019; cited from earlier work"}, "[15]": {"settings": "Microtissue model structural based (HCI), combined HCS and ATP, MEC < 25 × Cmax.tot cut-off"}, "[16]": {"settings": "Modeled in vitro assays (cytotoxicity, mitochondrial dysfunction, BSEP), ref Aleo et al. 2019"}}, "note": "Where two headings read alike, the source gives them in different places.", "data": [{"compound": "C[N+](C)(C)CC(=O)O", "note": "[betaine, reference compound]", "values": [{"measurement": "HepaRG <25x Avg Cmax ATP", "setting": "[1]; HepaRG, ATP endpoint, cut-off <25x Avg Cmax", "value": "-ve"}, {"measurement": "HepaRG <100x Avg Cmaxu ATP", "setting": "[1]; HepaRG, ATP endpoint, cut-off <100x Avg Cmaxu", "value": "-ve"}, {"measurement": "HepaRG <25x Avg Cmax HCS", "setting": "[1]; HepaRG, HCS endpoints, cut-off <25x Avg Cmax", "value": "-ve"}, {"measurement": "HepaRG <100x Avg Cmaxu HCS", "setting": "[1]; HepaRG, HCS endpoints, cut-off <100x Avg Cmaxu", "value": "-ve"}, {"measurement": "HepaRG <25x Avg Cmax All", "setting": "[1]; HepaRG, all endpoints (ATP and HCS), cut-off <25x Avg Cmax", "value": "-ve"}, {"measurement": "HepaRG Cmax max All", "setting": "[1]; HepaRG, all endpoints, Cmax max used", "value": "-ve"}, {"measurement": "HepaRG Cmax min All", "setting": "[1]; HepaRG, all endpoints, Cmax min used", "value": "-ve"}, {"measurement": "HepaRG <10 uM All", "setting": "[1]; HepaRG, all endpoints, cut-off <10 uM", "value": "-ve"}, {"measurement": "HepaRG <100x Avg Cmaxu All", "setting": "[1]; HepaRG, all endpoints, cut-off <100x Avg Cmaxu", "value": "-ve"}, {"measurement": "DILI prediction HepaRG spheroids (HCS-MEC)", "setting": "[1]; [15]", "value": "-VE"}, {"measurement": "Structural based (HCI)", "setting": "[2]; In vitro Assay, ref Tolosa 2012", "value": "-VE"}, {"measurement": "DILI in vitro assay prediction, Tolosa (2012)", "setting": "[2]; Structural based (HCI), HepG2, ref Tolosa et al. 2012", "value": "-VE"}, {"measurement": "THLE-Null", "setting": "[3]", "value": "-VE"}, {"measurement": "THLE-Null/3A4", "setting": "[3]", "value": "-VE"}, {"measurement": "DILI prediction hLiMTs (HCS-MEC)", "setting": "[4]; [15]", "value": "-VE"}, {"measurement": "hLiMTs <25x Avg Cmax ATP", "setting": "[4]; hLiMTs, ATP endpoint, cut-off <25x Avg Cmax", "value": "-ve"}, {"measurement": "hLiMTs <100x Avg Cmaxu ATP", "setting": "[4]; hLiMTs, ATP endpoint, cut-off <100x Avg Cmaxu", "value": "-ve"}, {"measurement": "hLiMTs <25x Avg Cmax HCS", "setting": "[4]; hLiMTs, HCS endpoints, cut-off <25x Avg Cmax", "value": "-ve"}, {"measurement": "hLiMTs <100x Avg Cmaxu HCS", "setting": "[4]; hLiMTs, HCS endpoints, cut-off <100x Avg Cmaxu", "value": "-ve"}, {"measurement": "hLiMTs <25x Avg Cmax All", "setting": "[4]; hLiMTs, all endpoints (ATP and HCS), cut-off <25x Avg Cmax", "value": "-ve"}, {"measurement": "hLiMTs Cmax max All", "setting": "[4]; hLiMTs, all endpoints, Cmax max used", "value": "-ve"}, {"measurement": "hLiMTs Cmax min All", "setting": "[4]; hLiMTs, all endpoints, Cmax min used", "value": "-ve"}, {"measurement": "hLiMTs <10 uM All", "setting": "[4]; hLiMTs, all endpoints, cut-off <10 uM", "value": "-ve"}, {"measurement": "hLiMTs <100x Avg Cmaxu All", "setting": "[4]; hLiMTs, all endpoints, cut-off <100x Avg Cmaxu", "value": "-ve"}, {"measurement": "fu", "setting": "[5]", "value": 0.760}, {"measurement": "Inhibition of rBsep cutoff<1& cmax u>.2", "setting": "[6]", "value": "-VE"}, {"measurement": "Inhibition of rBsep cutoff<3", "setting": "[6]", "value": "-VE"}, {"measurement": "Cmax", "setting": "[7]", "value": 944, "unit": "µM"}, {"measurement": "Assigned DILI category", "setting": "[8]; Chen et al. 2016 or literature alignment, ref Chen et al. 2016", "value": 1}, {"measurement": "In vivo DILI", "setting": "[8]; ref Aleo 2019", "value": "-VE"}, {"measurement": "In vivo DILI", "setting": "[8]; ref Dawson 2012", "value": "-VE"}, {"measurement": "In vivo DILI", "setting": "[8]; ref Garside 2014", "value": "-VE"}, {"measurement": "In vivo DILI", "setting": "[8]; ref Gustafsson 2014", "value": "-VE"}, {"measurement": "In vivo DILI", "setting": "[8]; ref O'Brien 2006", "value": "-VE"}, {"measurement": "In vivo DILI", "setting": "[8]; ref Tolosa 2012", "value": "-VE"}, {"measurement": "In vivo DILI", "setting": "[8]; ref Tolosa 2019", "value": "-VE"}, {"measurement": "Structural based (HCI)", "setting": "[9]; In vitro Assay, ref O'Brien 2006", "value": "+VE"}, {"measurement": "DILI in vitro assay prediction, O'Brien (2006)", "setting": "[9]; Structural based (HCI), HepG2, ref O'Brien et al. 2006", "value": "+VE (lowest HCI endpoint IC50 (or in the absence of dose–response < 100 µM) < 30 × total human plasma exposure levels (Cmax.tot))"}, {"measurement": "DILI severity category (Chen et al. [2016])", "setting": "[10]; LTKB DILIrank category, ref Chen et al. 2016", "value": "No"}, {"measurement": "DILI severity category (Chen 2016)", "setting": "[10]; human DILI classification, LTKB DILIrank, ref Chen et al. 2016", "value": "No"}, {"measurement": "DILI severity category", "setting": "[10]; human DILI severity, ref Chen et al.", "value": "No"}, {"measurement": "DILI +VE (5-8), DILI -VE (-4)", "setting": "[10]; ref Chen 2016", "value": "-VE"}, {"measurement": "DILI severity category", "setting": "[10]; ref Chen 2016", "value": "vNo-DILI-Concern"}, {"measurement": "Human plasma Cmax,u", "setting": "[11]", "value": 717.446, "unit": "µM"}, {"measurement": "Cluster 1-6 +VE Assay", "setting": "[12]", "value": "-VE"}, {"measurement": "Partition Hybrid HRM Score", "setting": "[13]; In vitro Assay, ref Aleo 2019", "value": "-VE"}, {"measurement": "Ro2 Hybrid HRM Score", "setting": "[13]; In vitro Assay, ref Aleo 2019", "value": "-VE"}, {"measurement": "Partition Hybrid HRM Score ≥4, Aleo (2019)", "setting": "[13]; [16]", "value": "-VE"}, {"measurement": "Partition Hybrid HRM Score ≥8, Aleo (2019)", "setting": "[13]; [16]", "value": "-VE"}, {"measurement": "Rule of Two hybrid HRM Score ≥3, Aleo (2019)", "setting": "[13]; [16]", "value": "-VE"}, {"measurement": "Rule of Two hybrid HRM Score ≥8, Aleo (2019)", "setting": "[13]; [16]", "value": "-VE"}, {"measurement": "Upcytes multi donor assay 14day data", "setting": "[14]", "value": "-VE"}]}]}
